Results as given in patent US12329815B2, “Acoustic driven drug delivery systems” (UNIVERSITY OF OTAGO, priority 2015, dated 2025).

Experiments:
[1] = in vivo; cited from earlier work
[2] = test system: entorhinal cortex (EC) slices; assay: Low Mg2+ (Mg2+-free) in vitro model of epilepsy: frequency of epileptiform events; format: cell-based, Wistar rats; settings: 10 μM non-liposomal, 15 min wash-in; n=4 slices
Excerpt: In the ‘low Mg^2+’ in vitro model of epilepsy the susceptibility of the entorhinal cortex (EC) to seizure activity is exploited by acutely bathing EC slices in Mg^2+-free artificial cerebrospinal fluid (ACSF). The removal of Mg^2+ from the extracellular environment consequently removes the normal Mg^2+ block on the N-Methyl-D-aspartic acid (NMDA) receptor. […]
Recordings from the tissue chamber were made using Ag/AgCl pellet electrodes (Harvard Apparatus, UK). The signal was collected on a chart recorder (Semat, UK) or digitally recorded (Neurolog, UK). […] Digitally recorded signals were amplified (×100 gain) and high-pass filtered (8.9 Hz cut-off). […] Drugs were applied via the perfusate (Mg^2+-free ACSF) and the frequency of epileptiform events (SLEs or LRDs) were measured before and during drug application. […]
To determine the effect of control drug solutions on the frequency of epileptiform activity, the frequency of events 30 min (in most cases) prior to drug application (pre-drug) was compared with the frequency of events during the wash-in period (15 min). For the drug delivered in liposomes, in addition to the frequency of pre-drug events and during wash-in, the frequency of events during 30 min immediately after the application of the ultrasound trigger was also quantified. […]

| Compound | fraction crossing the blood-brain barrier [1] | reduction in epileptiform activity [2] |
| --- | --- | --- |
| N[C@@H](Cc1ccc(O)c(O)c1)C(=O)O [levodopa] | 5-10% |  |
| NCc1cc(O)no1 [muscimol, 5-(aminomethyl)-isoxazol-3-ol] |  | 85%±14 |
